Data: article PMC8373216, “Development and Preclinical Evaluation of New Inhaled Lipoglycopeptides for the Treatment of Persistent Pulmonary Methicillin-Resistant Staphylococcus aureus Infections” (Antimicrobial Agents and Chemotherapy, 2021)
Converted amounts (≈) assume the structure as drawn. Like-named read-outs stand apart in the source and are kept apart here.

Columns and labels:
Streptococcus pneumoniae = assay: Expanded panel broth microdilution MIC/MBC; type: cell-based
[1] = test system: MRSA ATCC BAA 1556 (USA300) biofilm; assay: MRSA biofilm killing, MBEC assay system, TSB with 1% human plasma; details: MBEC
[2] = test system: Staphylococcus epidermidis; assay: Expanded panel broth microdilution MIC/MBC; type: cell-based; details: for MIC: Staphylococcus epidermidis
Cutibacterium acnes = assay: Expanded panel broth microdilution MIC; type: cell-based
Clostridioides difficile = assay: Expanded panel broth microdilution MIC; type: cell-based
Clostridium. perfringens = assay: microbe, parasite or virus in culture; type: cell-based
[3] = test system: MRSA (ATCC BAA 1556; USA300); assay: Acute pulmonary MRSA infection in neutropenic rats, nebulized nose-only inhalation; type: in vivo, Staphylococcus aureus; details: inhaled at 24 and 32 h postinfection, lungs at 48 h, RV40 14.4 mg/kg, RV94 18.8 mg/kg delivered
Procedure: Rats were rendered neutropenic with intraperitoneal (i.p.) cyclophosphamide on day −4 (150 mg/kg) and day −1 (100 mg/kg) relative to the challenge. On day 0 at 0 h, rats were challenged with MRSA via intranasal instillation at a target titer of 8.0 to 8.3 log10 CFU. At 24 and 32 h postchallenge, rats were loaded into a 12-port inhalation dosing tower, where they received nebulized drug or vehicle control treatments by nose-only inhalation. Animals were euthanized at 48 h postinfection for enumeration of lung MRSA titer. MRSA lung titer of test article treatments versus control is plotted for three separate experiments. […] Statistics are based on the Kolmogorov-Smirnov test for drug treatment versus control (RV94, P = 0.01). LOD = 2.1 log10 CFU/lungset.
Male Sprague Dawley rats (Envigo, Indianapolis, IN) weighing between 225 and 250 g were used in these studies. Rats were housed and acclimated to the study facility as described in the PK methods section. Rats were rendered neutropenic through a series of intraperitoneal cyclophosphamide (Sigma-Aldrich) injections on day −4 (150 mg/kg) and day −1 (100 mg/kg) relative to the challenge. On day 0 at 0 h, rats were challenged with MRSA ATCC BAA 1556 via intranasal instillation at a target titer of 8.0 to 8.3 log10 CFU using optical density and back-counting inoculum CFU. To prepare the inoculum, a frozen aliquot of the organism stored at −80°C was thawed, transferred into TSB, and incubated at 37°C while shaking for 16 h. Cultures were then centrifuged at 2,000 × g for 5 min, and the resulting pellet was resuspended in PBS and equilibrated. For the challenge procedure, rats were first anesthetized through use of 2 to 5% isoflurane in 100% oxygen, then restrained with a scruff grip and a total of 200 μl of inoculum was quickly introduced to one nare. The rat was held in a vertical position until the challenge was fully inhaled. Rats were monitored following challenge to ensure that normal respiration was achieved and then returned to their cage. […] At necropsy, whole lungs were aseptically removed and lung weights were recorded. […]

[4] = Single-dose nebulized nose-only inhalation PK in healthy rats; type: in vivo, rat; details: male, Sprague Dawley, rat, in vivo
Summary of the method: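 Ten or eleven rats per cohort dosed once by nebulized nose-only inhalation, delivered dose estimated from 5 min aerosol filter sampling. Lungs and plasma collected from immediately postdose (~30 min) to 168 h; drug quantified by LC-MS/MS after protein precipitation. PK by noncompartmental analysis, linear up/log down.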

Enterococcus faecium = assay: Expanded panel broth microdilution MIC/MBC; type: cell-based; details: for MIC: Enterococcus faecium, read-out: MIC
[5] = test system: Staphylococcus lugdunensis; assay: Expanded panel broth microdilution MIC; type: cell-based
Streptococcus mitis = assay: Expanded panel broth microdilution MIC/MBC; type: cell-based; details: for MIC: Streptococcus mitis
[6] = test system: MRSA ATCC BAA 1556 (USA300); assay: In-house broth microdilution MIC screening; type: cell-based, Staphylococcus aureus
[7] = MRSA and MSSA isolates of Table 1

SMILES: CCCCCCCCCCNC(=O)CNC1(C)CC(OC2C(Oc3c4cc5cc3Oc3ccc(cc3Cl)C(O)C3NC(=O)C(NC(=O)C5NC(=O)C(CC(N)=O)NC(=O)C(NC(=O)C(CC(C)C)NC)C(O)c5ccc(c(Cl)c5)O4)c4ccc(O)c(c4)-c4c(O)cc(O)cc4C(C(=O)O)NC3=O)OC(CO)C(O)C2O)OC(C)C1O (centres unmarked) [RV94]
- MIC:MBC (Streptococcus pneumoniae; S. pneumoniae PISP, MBC on one organism): 4
- MIC (Streptococcus pneumoniae; S. pneumoniae PRSP, 1 isolate): 8 ng/mL (≈ 4.86 nM)
- MIC (Streptococcus pneumoniae; Streptococcus pneumoniae, ATCC49619, S. pneumoniae ATCC 49619, PISP, read-out: MIC): 8 ng/mL (≈ 4.86 nM)
- MIC (Streptococcus pneumoniae; Streptococcus pneumoniae, S. pneumoniae MMX 432, PRSP, read-out: MIC): 8 ng/mL (≈ 4.86 nM)
- MIC (Streptococcus pneumoniae; Streptococcus pneumoniae, S. pneumoniae MMX 747, PISP, read-out: MIC): 4 ng/mL (≈ 2.43 nM)
- MIC (Streptococcus pneumoniae; Streptococcus pneumoniae, S. pneumoniae PISP, 2 isolates, read-out: MIC (median)): 6 ng/mL (≈ 3.64 nM)
- Biofilm activity, fold more potent than vancomycin at the same dose ([1]; 16 μg/ml): 2 fold
- Concentrations with statistically significant reduction versus control biofilm ([1]; two-way ANOVA, Bonferroni): ≥ 2 µg/mL
- MIC:MBC ([2]; S. epidermidis MRSE, MBC on one organism): 1
- MIC ([2]; ATCC49134, S. epidermidis ATCC 49134, MSSE, read-out: MIC): 0.015 µg/mL (≈ 9.11 nM)
- MIC ([2]; MRSE, S. epidermidis MMX 762, MRSE, read-out: MIC): 0.03 µg/mL (≈ 18.2 nM)
- MIC ([2]; MRSE, S. epidermidis MMX 5145, MRSE, read-out: MIC): 0.015 µg/mL (≈ 9.11 nM)
- MIC ([2]; MRSE, S. epidermidis MRSE, 2 isolates, read-out: MIC (median)): 0.03 µg/mL (≈ 18.2 nM)
- MIC ([2]; S. epidermidis MSSE, 1 isolate, read-out: MIC): 0.015 µg/mL (≈ 9.11 nM)
- MIC (Cutibacterium acnes; ATCC6919, P. acnes ATCC 6919, read-out: MIC): 8 ng/mL (≈ 4.86 nM)
- MIC (Cutibacterium acnes; ATCC11827, P. acnes ATCC 11827, read-out: MIC): 8 ng/mL (≈ 4.86 nM)
- MIC (Cutibacterium acnes; C. acnes, 2 isolates, read-out: MIC (median)): 8 ng/mL (≈ 4.86 nM)
- MIC (Clostridioides difficile; ATCCBAA1805, C. difficile ATCC BAA-1805, ribo 027, read-out: MIC): 0.015 µg/mL (≈ 9.11 nM)
- MIC (Clostridioides difficile; ATCCBAA1870, C. difficile ATCC BAA-1870, NAP1;ribo 027, read-out: MIC): 0.06 µg/mL (≈ 36.4 nM)
- MIC (Clostridioides difficile; C. difficile ATTC 700057, toxAB-, read-out: MIC): 0.015 µg/mL (≈ 9.11 nM)
- MIC (Clostridioides difficile; C. difficile NAP1;ribo 027, 1 isolate, read-out: MIC): 0.06 µg/mL (≈ 36.4 nM)
- MIC (Clostridioides difficile; C. difficile ribo 027, 1 isolate, read-out: MIC): 0.015 µg/mL (≈ 9.11 nM)
- MIC (Clostridioides difficile; C. difficile toxAB-, 1 isolate, read-out: MIC): 0.015 µg/mL (≈ 9.11 nM)
- MIC (Clostridium. perfringens): 8 ng/mL (≈ 4.86 nM)
- MIC (Clostridium. perfringens; ATCC13124): 8 ng/mL (≈ 4.86 nM)
- Average reduction in lung MRSA titer versus vehicle control [3]: 1.0 log10 CFU
- Pulmonary dose [4]: 1.10 mg/kg
- Drug lung level at 120 h ([4]; 120 h): 45%
- Primary hydrolysis byproduct lung level at 120 h ([4]; 120 h): 0.1%
- Kp ([4]; inhaled or intranasal): 1870
- Lung AUC0-∞ ([4]; inhaled or intranasal): 40671 µg·h/g
- Lung Cmax ([4]; inhaled or intranasal): 262 µg/g
- Lung t1/2 ([4]; inhaled or intranasal): 108 h
- Plasma Cmax ([4]; inhaled or intranasal): 0.14 µg/mL
- Hydrolysis product RV101 relative to parent concentration at lung Cmax ([4]; inhaled or intranasal, 120 h): 0.1%
- MIC:MBC (Enterococcus faecium; E. faecium VanA VRE): >8
- MIC:MBC (Enterococcus faecium; E. faecium VanB VRE): >8
- MIC (Enterococcus faecium; E. faecium MMX 4204, VSE): 0.015 µg/mL (≈ 9.11 nM)
- MIC (Enterococcus faecium; E. faecium VSE, 1 isolate): 0.015 µg/mL (≈ 9.11 nM)
- MIC (Enterococcus faecium; VRE, E. faecium MMX 173, VanB VRE): 0.03 µg/mL (≈ 18.2 nM)
- MIC (Enterococcus faecium; VRE, E. faecium MMX 851, VanA VRE): 2 µg/mL (≈ 1210 nM)
- MIC (Enterococcus faecium; VRE, E. faecium VanA VRE, 1 isolate): 2 µg/mL (≈ 1210 nM)
- MIC (Enterococcus faecium; VRE, E. faecium VanB VRE, 1 isolate): 0.03 µg/mL (≈ 18.2 nM)
- MIC ([5]; S. lugdunensis, 1 isolate): 0.015 µg/mL (≈ 9.11 nM)
- MIC ([5]; Staphylococcus lugdunensis, S. lugdunensis MMX 8724, read-out: MIC): 0.015 µg/mL (≈ 9.11 nM)
- MIC:MBC (Streptococcus mitis; S. mitis MGS, MBC on one organism): 1
- MIC (Streptococcus mitis; ATCC49456, S. mitis (MGS) ATCC 49456, read-out: MIC): 8 ng/mL (≈ 4.86 nM)
- MIC (Streptococcus mitis; S. mitis (MGS) MMX 5798, read-out: MIC): 8 ng/mL (≈ 4.86 nM)
- MIC (Streptococcus mitis; S. mitis MGS, 2 isolates, read-out: MIC (median)): 8 ng/mL (≈ 4.86 nM)
- MIC potency, fold less potent than RV40 [6, 7]: ~2 fold
- MIC potency, fold more potent than telavancin [6, 7]: ~2 fold
- MIC potency, fold more potent than vancomycin [6, 7]: approximately 30 fold
- MIC ([6]; Staphylococcus aureus, broth microdilution, read-out: MIC Value, MRSA ATCC BAA 1556): 0.031 µg/mL (≈ 18.8 nM)
